Experimental data taken from publication PMC6813295, “A tumour-selective cascade activatable self-detained system for drug delivery and cancer imaging” (Nature Communications, 2019).
Where a SMILES comes first, the peptide text is derived from it. The star is where a group is joined. X1 = CC1(C)C(=CC=C2CCCC(C=CC3=[N+](CCCCCC(=O)O)c4ccccc4C3(C)C)=C2*)N(CCCCCC(=O)O)c2ccccc21

Tested on: H460 cells
Format: cell-based, human
Conditions: confocal
Experimental: Fig. 3 Recognition and self-assembly of molecule 1 in cells. a Western blots of XIAP expression in H460 and 293T cells. b Confocal images of H460 cells treated with or without energy-dependent inhibitor (oligomycin A, 20 μM) for 1 h, and followed by washing with PBS and treated with the molecule 1 (50 μM) for 1 h. c Statistical analysis of average fluorescence intensities in the cytoplasm of H460 cells from confocal images. Data are presented as the mean ± s.d. (n = 100). ***p < 0.001, p values were performed with one-way ANOVA followed by post hoc Tukey’s test for the indicated comparison. d Confocal images of time-dependent monitoring of H460 and 293T cells treated with the molecule 1 (50 μM) for 1 h followed by washing with PBS and replacing the medium and a further incubation up to 48 h. e Statistical analysis of average fluorescence intensities in the cytoplasm of H460 and 293T cells from confocal images with a timescale range of 1–48 h. Data are presented as the mean ± s.d. […] Finally, incubate up to 6 h and imaging by confocal microscope. g Schematic diagram illustrates the process of NBD fluorescence illumination. h Confocal images of H460 cells treatment with molecule 1-NBD (50 μM) for 1 h. i TEM images of ultrathin section of H460 cells treated with molecule I-1 (50 μM) and without the molecule I-1 for up to 12 h. […]

CC[C@H](C)[C@H](NC(=O)[C@@H]1CCCN1C(=O)[C@@H](NC(=O)[C@H](C)N)C(C)C)C(=O)N[C@@H](C)C(=O)N[C@@H](CCC(N)=O)C(=O)N[C@@H](CCCCN)C(=O)N[C@@H](CC(=O)O)C(=O)N[C@@H](CCC(=O)O)C(=O)N[C@H](C(=O)N[C@@H](CC(=O)O)C(=O)N[C@@H](CCCCN)C(=O)N[C@@H](CC(C)C)C(=O)N[C@H](C(=O)N[C@@H](Cc1ccccc1)C(=O)N[C@@H](Cc1ccccc1)C(=O)N[C@@H](C)C(=O)N[C@@H](CCC(=O)O)C(=O)N[C@@H](CSC1=C(C=CC2=[N+](CCCCCC(=O)O)c3ccccc3C2(C)C)CCCC1=CC=C1N(CCCCCC(=O)O)c2ccccc2C1(C)C)C(=O)NCC(=O)O)C(C)C)C(C)C [molecule 1] (H-AVPIAQKDEVDKLVFFAEC(X1)G-OH)
uptake pathway into cells (H460, filipin III 5 μg/ml, chlorpromazine 10 μg/ml, amiloride 10 μM, 1 h, 50 μM 2 h, 37 °C): caveolin-mediated endocytic pathway
internalization into cells, energy dependence (H460, oligomycin A 20 μM 1 h, then 50 μM 1 h, n = 100): energy-dependent
